Data on six substances can be found in publication PMC5880497, “Interaction of lecithin:cholesterol acyltransferase with lipid surfaces and apolipoprotein A-I-derived peptides” (Journal of Lipid Research, 2018).

pKd: −log10 of the molar value. No end group written: not given here.

Experiment [1] has as its target T1, glycosylated human LCAT protein (Homo sapiens, UniProt P04180).
T1 construct: purchased Sino Biological Inc., Beijing, China; host or cells: human cells
T1 sequence (P04180 25-440): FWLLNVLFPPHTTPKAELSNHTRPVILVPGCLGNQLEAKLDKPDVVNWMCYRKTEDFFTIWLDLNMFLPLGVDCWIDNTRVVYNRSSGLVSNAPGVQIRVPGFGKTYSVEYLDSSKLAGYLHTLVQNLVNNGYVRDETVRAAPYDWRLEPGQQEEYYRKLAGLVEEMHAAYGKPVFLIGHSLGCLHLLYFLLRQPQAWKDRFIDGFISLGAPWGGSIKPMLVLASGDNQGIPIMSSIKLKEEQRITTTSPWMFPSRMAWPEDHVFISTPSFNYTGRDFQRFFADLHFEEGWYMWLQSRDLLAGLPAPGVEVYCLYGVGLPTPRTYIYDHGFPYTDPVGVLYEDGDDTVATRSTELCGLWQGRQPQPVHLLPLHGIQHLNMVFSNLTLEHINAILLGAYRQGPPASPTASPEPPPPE
As to the kind of experiment: MP-SPR binding of LCAT to immobilised biotin-labelled apoA-I-derived peptides. Particulars: N-terminal biotin-peptide on streptavidin-coated sensor, LCAT 156-5,000 nM serial injections of 15 min, 10 μl/min, buffer A pH 7.4, 293 K, Langmuir fit. The protocol: POPC dissolved in chloroform (25 mg/ml) was obtained from Avanti Polar Lipids (Alabaster, AL). Calcium chloride, HEPES, CHAPS, sodium chloride, EDTA, sodium azide, and potassium dihydrogen phosphate were obtained from Merck Sigma-Aldrich (Darmstadt, Germany). Potassium chloride was obtained from Honeywell Riedel de Haën (Seelz, Germany); disodium hydrogen phosphate was obtained from Fisher Scientific (Hampton, NH). Peptides and N-terminal biotin-labeled peptides were synthesized by Peptide Protein Research Ltd., Hampshire, UK and had the following amino acid sequences: i) 122-142, […]; ii) 135-155, […]; iii) 150-170, […]; iv) 150-170-Y166F, […]; and v) 185-205, […]. Lyophilized glycosylated human LCAT protein (Sino Biological Inc., Beijing, China; a recombinant protein produced in human cells) was reconstituted with 400 μl of ultrapure sterile water to yield LCAT at 5 μM in PBS (manufacturer specifications). Ultrapure water used for preparation of the buffer and in all measurements was prepared with a Milli-Q purification system, having a resistivity of 18 MΩ·cm and TOC level of <5 ppm. The following buffers were used: 20 mM PBS, 1 mM EDTA, 1 mM Na azide (pH 7.4) (buffer A); and 20 mM HEPES and 150 mM NaCl (pH 7.4) (buffer B).
Measurements were performed with a multi-parameter SPR Navi™ 200 (BioNavis Ltd., Tampere, Finland) instrument. The setup was equipped with two incident laser wavelengths, 670 nm and 785 nm, two independent flow channels, inlet tubing and outlet (waste) tubing, and an autosampler. Both of the flow channels were measured simultaneously with 670 nm and 785 nm incident light. The measurement temperature was kept constant at 293° K. Biotin-coated SPR sensors (Bionavis Ltd.) were placed in the flow-cell. The flow rates used for the streptavidin interaction with biotin, biotin-peptides with streptavidin, and for LCAT interaction with immobilized peptides were 10 μl/min. SPR spectra were recorded after introduction of buffer A into the flow-cell for 10–30 min until a stable baseline was achieved, after which the surface was fully saturated with streptavidin during a 10 min serial injection at 1.9 μM to saturate the SPR sensor. It was observed that after 5 min the SPR sensor was fully coated with streptavidin; therefore, the method was adapted to 5 min. In the second phase of the measurement, in DMSO solubilized biotin-peptides with a final concentration of 100 μM were injected in parallel into both flow channels for 7 min at […] to cover the SPR sensor fully, i.e., until all streptavidin bindings sites were fully occupied. Parallel injections ensured that two peptides were analyzed simultaneously. Increasing concentrations of LCAT were then injected into both channels via serial injection, to ensure the lowest variation of LCAT injection for 15 min at increasing concentrations (156, 313, 625, 1250, 2,500, and 5,000 nM) to determine the binding constant of the LCAT-peptide complexes. The data was fitted in OriginPro (v. 8.6, OriginLab Corp., Northampton, MA) according to the Langmuir model to obtain the dissociation constants (Kd) and the responses of saturated binding (Rmax): R=Rmax/1+Kd/c
where R is the final response after each injection and c is the concentration of LCAT in each injection.
To also elucidate the specificity of different peptide regions against LCAT, we carried out MP-SPR experiments to determine dissociation constants (Kd) for the LCAT-peptide complexes. […]

The conditions of experiment [2]: LCAT with small unilamellar vesicles in the absence of apolipoproteins; cited from earlier work. The text has this: To assess the possibility of the second hypothesis, we calculated the binding free-energies for LCAT in open and closed states. As shown by the PMF profiles in Fig. 5A, the lid-open state (ΔGwater→lipid = −28 ± 1 kJ/mol) is not able to bind so strongly to lipids when compared with the lid-closed state (ΔGwater→lipid = −34 ± 1 kJ/mol), although the previous findings indicated a deeper lipid interaction for the open state (Fig. 3B). The value for the closed state is well in agreement with existing experimentally determined dissociation constants giving binding a free-energy value of −36 kJ/mol f ...

A short description of experiment [3]: QCM binding of LCAT, peptides or LCAT plus peptide to a POPC supported lipid bilayer. Particulars: POPC SLB, LCAT 37.5 nM in buffer A, without apoA-I or peptide. On the procedure: Prior to the QCM measurements, the PBS buffer formed after reconstitution of LCAT was exchanged for buffer A due to the extremely high sensitivity of the QCM method to slight differences in the ionic strength of the background buffer. The LCAT solution was placed in an Amicon Ultra-0.5 10K centrifugal filter device (Merck Millipore Ltd., Tullagreen Carrigtohill, Ireland) and equal volumes of buffer A were filtered through 10 times at 14,000 g, after which 400 μl of buffer A were added to fully recover LCAT at 5 μM. The peptides were dissolved into buffer A at a final concentration of 100 μM. An impedance-based QCM instrument (KSV Instruments Ltd., Helsinki, Finland) was used for the measurements. The measurement temperature was kept constant at 293° K. Before measurements, silica-coated QCM sensors (Q-Sense Inc./BiolinScientific, Västra Frölunda, Sweden) were first flushed with 70% ethanol and ultrapure water, dried under nitrogen flow, and finally oxygen plasma treated (PDC-002; Harrick Plasma, Ithaca, NY) for 5 min at 29.6 W and 133-173 Pa. Samples were injected into the measurement chamber with a peristaltic pump system (Ismatec/Cole-Parmer GmbH, Wertheim, Germany). […] Neither LCAT nor peptides induced changes in viscoelastic properties of the bilayer, which was seen as negligible changes in the recorded energy dissipation. […]

As for DRARAHVDALRTHLAPFSDEL [150-170-Y166F], the pKd in experiment [1] is 5.73.
In experiment [1], DRARAHVDALRTHLAPYSDEL [150-170] gave a negative logarithm of the Kd (pKd) of 6.54.
“GGARLAEYHAKATEHLSTLSE [185-205, reference compound]” showed a pKd in experiment [1] of 5.33.
Same read-out and setting: in the case of HELQEKLSPLGEEMRDRARAH [135-155] it was 6.09; in that of LRAELQEGARQKLHELQEKLS [122-142], 5.99.
Take “lecithin:cholesterol acyltransferase [LCAT]”: the “Binding free-energy from experimentally determined dissociation constants” value in experiment [2] was -8.6 kcal/mol. The “Binding of LCAT alone to the POPC membrane” value in experiment [3] was “binds to the POPC membrane without apoA-I”.
